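Cells were grown in 96-well plates and exposed to each compound for 48 hours at five concentrations; endpoints were interpolated linearly between bracketing concentrations, or set to the highest concentration if not reached. At the GI50, growth is halved. At the TGI there is no net growth.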
What was measured:
Assay in all cases: NCI anticancer screen, dose series, 48 h
MOLT-4 leukemia = tested on: MOLT-4 leukemia
SW-620 colon = tested on: SW-620 colon
SNB-75 CNS = tested on: SNB-75 CNS
UO-31 renal = tested on: UO-31 renal
NCI-H460 lung = tested on: NCI-H460 lung
SK-MEL-28 melanoma = tested on: SK-MEL-28 melanoma
NCI/ADR-RES ovarian = tested on: NCI/ADR-RES ovarian
OVCAR-4 ovarian = tested on: OVCAR-4 ovarian
T-47D breast = tested on: T-47D breast
DU-145 prostate = tested on: DU-145 prostate

SMILES | TGI (MOLT-4 leukemia) [µM] | TGI (SW-620 colon) [µM] | TGI (SNB-75 CNS) [µM] | TGI (UO-31 renal) [µM] | TGI (NCI-H460 lung) [µM] | TGI (SK-MEL-28 melanoma) [µM] | TGI (NCI/ADR-RES ovarian) [µM] | TGI (OVCAR-4 ovarian) [µM] | TGI (T-47D breast) [µM] | TGI (DU-145 prostate) [µM] | GI50 (MOLT-4 leukemia) [µM] | GI50 (SW-620 colon) [µM] | GI50 (SNB-75 CNS) [µM] | GI50 (UO-31 renal) [µM] | GI50 (NCI-H460 lung) [µM] | GI50 (SK-MEL-28 melanoma) [µM] | GI50 (NCI/ADR-RES ovarian) [µM] | GI50 (OVCAR-4 ovarian) [µM] | GI50 (T-47D breast) [µM] | GI50 (DU-145 prostate) [µM]
CC1=C2C(=O)[C@H]3[C@@H](CC=C4C[C@@H](O)CC[C@@]43C)[C@@H]2CC[C@]12O[C@@H]1C[C@H](C)CN[C@H]1[C@H]2C | > 100 | > 79.9 | > 54.4 | > 54.3 | > 65 | > 92.1 | > 100 | > 64.5 | > 100 | > 100 |  |  |  |  |  |  |  |  |  | 
O=[N+]([O-])c1ccc(C2=NOC(c3ccccc3F)N2C23CC4CC(CC(C4)C2)C3)cc1 (centres undefined) | > 100 | > 100 | > 100 | > 100 | > 100 | > 100 | > 100 | > 100 | > 100 | > 100 |  |  |  |  |  |  |  |  |  | 
O=C/C(=C(/Br)I)c1ccccc1 | 4.28 | 2.75 | 18.7 | 9.32 | 26.4 | 2.6 | 15.2 | 10.6 | 3.85 | 29.2 |  |  |  |  |  |  |  |  |  | 
Cc1cn(C2CCC(/C=N\O)O2)c(=O)[nH]c1=O (centres undefined) | > 100 | > 100 | > 100 | > 100 | > 100 | > 100 | > 100 | > 100 | > 100 | > 100 |  |  |  |  |  |  |  |  |  | 
COc1ccc(N2C(=O)C3ON(C(C(N)=O)c4ccccc4)C(c4ccc(-c5ccccc5)cc4)C3C2=O)cc1 (centres undefined) | > 50 | > 50 | > 50 | > 50 | > 50 | > 50 | > 50 | > 50 | > 50 | > 50 |  |  |  |  |  |  |  |  |  | 
O=c1cc(N2CCOCC2)[nH]c(=O)n1-c1cccc(C(F)(F)F)c1 | > 100 | > 100 | > 100 | > 100 | > 100 | > 100 | > 100 | > 100 | > 100 | > 100 |  |  |  |  |  |  |  |  |  | 
CC(C)(C)c1nc2c(o1)C(=O)c1ccccc1C2=O | 16.9 | 4.4 | 6.7 | 6.23 | 8.19 | 4.35 | 1.76 | 2.44 | 3.97 | 2.57 |  |  |  |  |  |  |  |  |  | 
CCOC(=O)CCC(NC(=O)c1ccc(Oc2nc3ccc(C(F)(F)F)cc3nc2-c2ccccc2)cc1)C(=O)OCC (centres undefined) | > 100 | > 100 | 29.1 | > 100 | > 100 | > 100 | > 100 | > 83 | > 100 | > 100 |  |  |  |  |  |  |  |  |  | 
O=P(Oc1ccccc1)(Oc1ccccc1)Oc1c[nH]c2ccccc12 | 46.6 | 36 | 23.9 | 19.7 | 26.7 | 26.6 | 18 | 14.5 | 52.9 | > 100 |  |  |  |  |  |  |  |  |  | 
CCCc1c(OC)c(=O)c2c(OC)cc(OC)c3c4c(OC)cc(OC)c5c(=O)c(OC)c(CCC)c(c1c23)c54 | 35 | 33.7 | 36 | 28.9 | 34.5 | 26.2 | 47.4 | 28.4 | 20.6 | 24.6 |  |  |  |  |  |  |  |  |  | 
C[C@]12CC[C@@H]3c4cc(OCC(F)(F)F)c(O)cc4C(=O)C[C@H]3[C@@H]1CC[C@@H]2O | > 100 | > 100 | 65.7 | > 100 | > 100 | > 52.3 | > 31.3 | > 100 | > 100 | > 100 |  |  |  |  |  |  |  |  |  | 
CC(C)(C)N(Cc1ccc2c(c1)OCO2)C(=O)/C=C\S(=O)c1ccccc1 (centres undefined) | > 45.4 | 17.5 | 15.1 | 7.93 | 16.9 | 22.8 | 10.2 | 10.7 | 14.3 | 10.2 |  |  |  |  |  |  |  |  |  | 
CC(N)C(C)Cc1ccccc1 (centres undefined) | > 100 | > 100 | > 100 | > 100 | > 100 | > 100 | > 100 | > 100 | > 100 | > 100 |  |  |  |  |  |  |  |  |  | 
CN(NC(=O)CCCl)C1=NCCN1 | > 100 | > 100 | > 100 | > 100 | > 100 | > 100 | > 100 | > 100 | > 100 | > 100 |  |  |  |  |  |  |  |  |  | 
CC1(C2(C)OC(=O)c3ccccc32)OC(=O)c2ccccc21 (centres undefined) | > 100 | > 100 | > 100 | > 100 | > 100 | > 100 | > 100 | > 100 | > 100 | > 100 |  |  |  |  |  |  |  |  |  | 
CN(C)CCNc1ccc2c(=O)n(CCN(C)C)c(=O)n3c4ccc([N+](=O)[O-])cc4c(=O)c1c23 | 0.0685 | 1.78 | 1.26 | 4.06 | 1.53 | 2.66 | 2.1 | 2.8 | 6.89 | 6.54 |  |  |  |  |  |  |  |  |  | 

SMILES | TGI (MOLT-4 leukemia) [µM] | TGI (SW-620 colon) [µM] | TGI (SNB-75 CNS) [µM] | TGI (UO-31 renal) [µM] | TGI (NCI-H460 lung) [µM] | TGI (SK-MEL-28 melanoma) [µM] | TGI (NCI/ADR-RES ovarian) [µM] | TGI (OVCAR-4 ovarian) [µM] | TGI (T-47D breast) [µM] | TGI (DU-145 prostate) [µM] | GI50 (MOLT-4 leukemia) [µM] | GI50 (SW-620 colon) [µM] | GI50 (SNB-75 CNS) [µM] | GI50 (UO-31 renal) [µM] | GI50 (NCI-H460 lung) [µM] | GI50 (SK-MEL-28 melanoma) [µM] | GI50 (NCI/ADR-RES ovarian) [µM] | GI50 (OVCAR-4 ovarian) [µM] | GI50 (T-47D breast) [µM] | GI50 (DU-145 prostate) [µM]
CCCCn1c(C)c(C(=O)OCC)s/c1=N/Nc1nc2ccccc2nc1-c1ccccc1 | > 100 | > 100 | > 100 |  | > 100 | > 100 | > 100 | > 100 | > 100 | 94.1 |  |  |  |  |  |  |  |  |  | 
COc1ccc2nc3ccc(OC)cc3c(S(=O)(=O)Cc3ccc([N+](=O)[O-])cc3)c2c1 | > 100 | > 100 | > 100 | > 100 | > 100 | > 100 | > 100 | > 100 | > 100 | > 100 |  |  |  |  |  |  |  |  |  | 
CCCCCNc1nonc1N | > 100 | > 100 | > 100 | > 100 | > 100 | > 100 | > 100 | > 100 | > 100 | > 100 |  |  |  |  |  |  |  |  |  | 
CC(C)(C)c1ccc(-c2nc3ccc([N+](=O)[O-])cc3c(=O)o2)cc1 | 46.4 | > 100 | 66.1 | 93.8 | > 100 | 97.1 | 79.8 | 75.2 | > 100 | > 100 |  |  |  |  |  |  |  |  |  | 
COCC1CCCN1c1ccc(/C=C(/C#N)C(N)=S)cc1 (centres undefined) | > 100 | > 100 | > 100 | > 100 | > 100 | > 100 | > 100 | > 100 | > 100 | > 100 | > 100 | 79.4 | 90.7 | > 100 | > 100 | > 100 | > 100 | > 100 | 30.6 | > 100
CC1=C2c3c(C)ccc4ccc(C)c(c34)C2(O)C(C)C1=O (centres undefined) | > 100 | > 100 | > 100 | > 100 | > 100 | > 100 | 76 | > 100 | > 100 | > 100 |  |  |  |  |  |  |  |  |  | 
CC(=O)C(=[N+]=[N-])C(=O)OC(C)(C)C#N | > 10 | > 10 | 8.12 | > 10 | > 10 | > 10 | > 10 | > 10 | > 10 | > 10 |  |  |  |  |  |  |  |  |  | 
COC(=O)C1(Cc2ccc3c(c2)CCC3)Cc2ccc3c(c2C1O)CCC3 (centres undefined) | > 100 | 30.2 | > 100 | 22.5 | 54.4 | 32.6 | 35.9 | 27.7 | 33 | 46.4 |  |  |  |  |  |  |  |  |  | 
Cc1cccc2c1Oc1cc(Cl)ccc1C2NC(=O)CCN1CCN(CCO)CC1 (centres undefined) | 38.9 | 32.2 | 25.1 | 26.8 | 34.2 | 9.93 | 30.9 | 31 | 34.2 | 61.2 |  |  |  |  |  |  |  |  |  | 
CC(C)C1(C)N=C(C(F)(F)F)c2cc(C(=O)C(F)(F)F)c3ccccc3c2N1 (centres undefined) | 18.1 | > 51.6 | 7.96 | 14.1 | 14.6 | 20.8 | 9.09 | 18.9 | 11.4 | 14.1 |  |  |  |  |  |  |  |  |  | 
CC1(C)C(=O)C(C)(C)C12SSC1(S2)C(C)(C)C(=O)C1(C)C | > 100 | > 100 | > 100 | > 100 | > 100 | > 100 | > 100 | > 100 | > 100 | > 100 |  |  |  |  |  |  |  |  |  | 
O=C1CN2Cc3cc(N4CCOCC4)ccc3N=C2N1 | > 100 | > 100 | > 100 | > 100 | > 100 | > 100 | > 100 | > 100 | > 100 | > 100 |  |  |  |  |  |  |  |  |  | 
N#CCCN(CCC#N)c1ccc(C(N=Nc2ccccc2)=Nc2ccccc2)cc1 | > 100 | > 100 | > 100 | > 100 | > 100 | > 100 | > 100 | > 100 | > 100 | > 100 |  |  |  |  |  |  |  |  |  | 
O=C1/C(=C\c2cccc(Oc3ccccc3)c2)S(=O)(=O)C(c2ccccc2)N1c1ccc(Cl)cc1 (centres undefined) | 33.1 | 34.4 | > 100 | 26.8 | > 100 | 34 | 54.1 | 52.3 | 29.9 | 37.4 |  |  |  |  |  |  |  |  |  | 
O=C(O)C1CCCN1Cc1cc2ccccc2c2ccccc12 (centres undefined) | > 100 | > 100 | > 100 | > 100 | > 100 | > 100 | > 100 | > 100 | > 100 | > 100 |  |  |  |  |  |  |  |  |  | 
O=c1oc2ccccc2c(O)c1C(c1ccco1)c1c(O)c2ccccc2oc1=O | 62.1 | 49.8 | 95.9 | 43.9 | > 100 | 52.1 | > 100 | > 100 | > 100 | > 100 |  |  |  |  |  |  |  |  |  | 

Source: PubChem BioAssay (NCI)
